The text below walks through data of US7396846B2, “Growth hormone secretagogues” (Eli Lilly and Company, priority 2002, dated 2008).

The structures appear in SMILES notation. Structures can show the parent of a compound that is named as a salt.

The term EC50 denotes the concentration at which the effect is half-maximal.

One test relates to pituitary cells. The experiment in a line: Pituitary Cell Culture Assay for Growth Hormone (GH) Secretion. The format is cell-based. The note with it: 0.75 h; stimulation of GH secretion, cultured rat anterior pituitary cells, 45 min at room temperature, rat GH radioimmunoassay. The source says: Growth hormone secretagogue activity can be determined using a typical assay which may employ pituitary cells established in culture, followed by a challenge with the various compounds of formula I, and the levels of growth hormone determined accordingly. Growth hormone levels may be calculated using various radioimmunoassay techniques known to those of skill in the art. One example of such an assay is detailed herein.
Pituitary Cell Culture Assay for Growth Hormone (GH) Secretion
Fifteen 250 g male Sprague-Dawley rats are used for each assay. The animals are killed by decapitation and anterior pituitaries are removed and placed into ice cold culture medium. The pituitaries are sectioned in small pieces and enzymatically digested using trypsin (Difco) to weaken connective tissue. Pituitary cells are dispersed by mechanical agitation, collected, pooled and then seeded into 96-well plates (50,000 cells/well). After 5 days of culture, the cells formed as monolayer (70-80% confluent). Cells are then washed with medium (without phenol red) and incubated for 90 min at 37° C. Afterwards the cells are challenged to secrete GH by the addition of GH secretagogues to the medium. After 45 min at room temperature, the medium is removed, filtered and stored frozen until radioimmunoassays for rat GH were performed. Doses of secretagogue are added in triplicates. Compounds disclosed herein are active in the assay as described. The compounds cause a stimulation of GH secretion resulting in at least 20% increase of the basal level of GH with and EC50<500 nM. […] Both EC50 and efficacy values were calculated by the 4-parameter logistic equation. Such values were pooled and represented as mean+/−standard error, when appropriate.
In turn, `CCN(CC1=C(c2ccc(S(C)(=O)=O)cc2)S(=O)(=O)NC12CCCCC2)C(=O)[C@@H](COCc1cc(F)ccc1F)NC(=O)C(C)(C)N` [Example 2, 2-(R)-2-(2-Amino-2-methylpropionylamino)-3-(2,5-difluorophenyl)methoxypropionic acid N-ethyl-N-(3-(4-methanesulfonyl-phenyl)-2,2-dioxo-2-thia-1-azaspiro[4.5]dec-3-ene-4-ylmethyl)amide Hydrochloride] came in with an EC50 of 0.23 nM. For the compound `CCN(CC1=C(c2ccc(S(C)(=O)=O)cc2)S(=O)(=O)NC12CCCCC2)C(=O)[C@@H](COCc1ccc(F)c(F)c1)NC(=O)C(C)(C)N` [Example 4, 2-(R)-2-(2-Amino-2-methylpropionylamino)-3-(3,4-difluorophenyl)methoxypropionic acid N-ethyl-N-(3-(4-methanesulfonyl-phenyl)-2,2-dioxo-2-thia-1-azaspiro[4.5]dec-3-ene-4-ylmethyl)amide Hydrochloride], the concentration for a half-maximal effect (EC50) was 0.9 nM. Still for that read-out and setting: the same measure for `CCN(CC1=C(c2ccc(S(C)(=O)=O)cc2)S(=O)(=O)NC12CCCCC2)C(=O)[C@@H](COCc1cc(F)cc(F)c1)NC(=O)C(C)(C)N` [Example 5, 2-(R)-2-(2-Amino-2-methylpropionylamino)-3-(3,5-difluorophenyl)methoxypropionic acid N-ethyl-N-(3-(4-methanesulfonyl-phenyl)-2,2-dioxo-2-thia-1-azaspiro[4.5]dec-3-ene-4-ylmethyl)amide Hydrochloride]: 0.6 nM; for `CN(CC1=C(c2ccc(Cl)cc2)S(=O)(=O)NC1(C)C)C(=O)[C@@H](COCc1ccc(F)cc1)NC(=O)C(C)(C)N` [Example 7, 2-(R)-2-(2-Amino-2-methylpropionylamino)-3-(4-fluorophenyl)methoxy propionic acid N-[5-(4-chlorophenyl)-3,3-dimethyl-1,1-dioxo-2,3-dihydroisothiazol-4-ylmethyl]-N-methylamide Hydrochloride]: 1.7 nM.

The test is the same for the next values; noted with them: stimulation of GH secretion, cultured rat anterior pituitary cells, 45 min at room temperature, rat GH radioimmunoassay.
In turn, `CCN(CC1=C(c2ccc(Cl)cc2)S(=O)(=O)NC1(C)C)C(=O)[C@@H](COCc1ccc(F)cc1F)NC(=O)C(C)(C)N` [Example 12, 2-(R)-2-(2-Amino-2-methylpropionylamino)-3-(2,4-difluorophenyl)methoxy propionic acid N-[5-(4-chlorophenyl)-3,3-dimethyl-1,1-dioxo-2,3-dihydroisothiazol-4-ylmethyl]-N-ethylamide Hydrochloride] showed an EC50 of 8 nM. This lies in the single-digit nanomolar range. The compound `CCN(CC1=C(c2ccc(Cl)cc2)S(=O)(=O)NC1(C)C)C(=O)[C@@H](COCc1cc(F)ccc1F)NC(=O)C(C)(C)N` [Example 15, 2-(R)-2-(2-Amino-2-methylpropionylamino)-3-(2,5-difluorophenyl)methoxy propionic acid N-[5-(4-chlorophenyl)-3,3-dimethyl-1,1-dioxo-2,3-dihydroisothiazol-4-ylmethyl]-N-ethylamide Hydrochloride] had an EC50 of 2.1 nM. For `CCN(CC1=C(c2ccc(Cl)cc2)S(=O)(=O)NC1(C)C)C(=O)[C@@H](COCc1c(F)cccc1F)NC(=O)C(C)(C)N` [Example 16, 2-(R)-2-(2-Amino-2-methylpropionylamino)-3-(2,6-difluorophenyl)methoxy propionic acid N-[5-(4-chlorophenyl)-3,3-dimethyl-1,1-dioxo-2,3-dihydroisothiazol-4-ylmethyl]-N-ethylamide Hydrochloride], the EC50 was determined as 1.1 nM. This EC50 is about 1.9-fold lower than that of the compound before.
